The text below walks through data of ChEMBL document CHEMBL1201862, “PubChem BioAssay data set” (2004).

Holding throughout (test): DTP human tumour cell line panel, 48 h
For test [1], the system named is DLD-1.
In test [2] the test system is SK-MEL-28.
The subject of test [3] is CCRF-CEM.
For test [4], the system named is MOLT-4.
The test system of test [5] is NCI-H226.
The test system of test [6] is COLO 205.
Test [7] deals with M14.
The subject of test [8] is NCI-H522.
For test [9], the system named is CAKI-1.
Test [10] relates to SK-MEL-2.
Test [11] relates to 786-0.
Test [12] has as its system A498.
Test [13] relates to EKVX.
Test [14] concerns OVCAR-8.
The test system of test [15] is Malme-3M.
In test [16] the test system is UACC-257.
The test system of test [17] is MCF7.
In test [18] the test system is PC-3.
Test [19] has as its system MDA-MB-231.
The subject of test [20] is BT-549.

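Briefly, cells in 96-well plates were exposed to five compound concentrations for 48 h, and endpoints were estimated by linear interpolation. GI50 is the concentration that inhibits growth by half.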 The source made the active and inactive calls. Cut-off read from the data, not from the text of the source: active = GI50 up to about 1.1 µM and inactive = higher. Square brackets hold non-standard residues; d marks the D form. Peptide text beside a SMILES is read from it. 2Nal = N[CH](Cc1ccc2ccccc2c1)C(=O)O Where only a bound is given, the exact number is not on record here.

As a reminder, the GI50 is the concentration that inhibits growth by half. On to `COc1cc(NC(C)=O)c2[nH]c3c(C)cc(NC(C)=O)c(C)c3c2c1`, for which the GI50 in test [1], in [2], in test [3], in [4], in test [5] and in [6] was > 100 µM (inactive) each time. Further, the GI50 in [7], in test [8], in [9], in test [10], in test [11] and in test [12] was > 100 µM (inactive) throughout. For the same compound, the GI50 in test [13] and in test [14] was > 100 µM (inactive) each time.

As to `O=C1c2ccccc2C(=O)N1Cc1ccccc1-c1c2nc(c(-c3ccccc3CN3C(=O)c4ccccc4C3=O)c3ccc([nH]3)c(-c3ccccc3CN3C(=O)c4ccccc4C3=O)c3nc(c(-c4ccccc4CN4C(=O)c5ccccc5C4=O)c4ccc1[nH]4)C=C3)C=C2`, the GI50 is > 100 µM (inactive) in test [1]; > 100 µM (inactive) in [2]; > 100 µM (inactive) in [3]; > 100 µM (inactive) in [4]; > 100 µM (inactive) in test [5]; 74 µM (inactive) in test [6]. The GI50 in test [7] was 31.2 µM (inactive); in test [8], > 100 µM (inactive); in test [15], > 100 µM (inactive); in test [16], > 100 µM (inactive); in [9], > 100 µM (inactive); in [10], > 100 µM (inactive). For the same compound, the GI50 in [11], in test [12] and in test [14] was > 100 µM (inactive) each time.

As for `Cc1cc(NS(=O)(=O)c2ccc(NC(=O)COC(=O)c3cccc4c(=O)c5ccccc5[nH]c34)cc2)no1`, the GI50 in test [1], in test [2], in test [3], in test [4], in [5] and in test [6] was > 100 µM (inactive) each time. Further, the GI50 in [7], in [8], in [15], in test [16], in test [9] and in test [11] was > 100 µM (inactive) throughout. The GI50 in test [12], in test [13] and in [14] was > 100 µM (inactive) in each case.

Consider `COC(=O)C(Cc1nc2ccc(Cl)cc2nc1O)/C(=N/O)C(=O)Nc1cccc(Cl)c1C` (stereo not given), for which the GI50 in [1], in [2], in test [3], in [4], in test [5] and in test [6] was > 100 µM (inactive) in each case. Further, the GI50 in test [7], in test [8], in [15], in [16], in [9] and in [10] was > 100 µM (inactive) each time. In addition, the GI50 in [11] is > 100 µM (inactive); in [12] it was > 100 µM (inactive); in test [13], 10.1 µM (inactive); in [14], > 100 µM (inactive).

On to `CCOc1cccc2sc(N)nc12`, for which the GI50 in test [1], in [2], in test [4], in test [5], in test [6] and in test [7] was > 100 µM (inactive) each time. Moreover, the GI50 in test [8], in test [15], in test [16], in [9], in test [10] and in [11] was > 100 µM (inactive) in each case. Further, the GI50 in test [12] is > 100 µM (inactive); in [13], 49 µM (inactive); in test [14], > 100 µM (inactive).

Regarding `C[N+](C)(C)CC(=O)N/N=C(\CCC(=O)NCCc1ccccc1)CC(=O)c1ccccc1`, the GI50 in [1], in test [3], in test [4], in [5], in [6] and in test [7] was > 100 µM (inactive) throughout. The GI50 in test [8], in test [15], in test [16], in test [9], in [10] and in test [11] was > 100 µM (inactive) throughout. Further, the GI50 in test [12], in [13] and in test [14] was > 100 µM (inactive) in each case.

Consider `Cc1nc2ccc(NCCN(C)C)c3c(=O)c4cc(O)ccc4n1c23`, for which the GI50 in test [1] is 0.148 µM (active); in test [2] it was 3.03 µM (inactive); in test [3], 0.0962 µM (active); in [4] it was 0.0164 µM (active); in [5], 0.109 µM (active); in [6], 0.445 µM (active). The GI50 was 0.743 µM (active) in [17]; 2.67 µM (inactive) in test [7]; 0.112 µM (active) in test [8]; 1.19 µM (inactive) in test [15]; 3.56 µM (inactive) in test [16]; 0.25 µM (active) in [9]. Further, the GI50 in [10] is 3.35 µM (inactive); in [11] it was 0.228 µM (active); in [18] it was 0.653 µM (active); in [12], 1.42 µM (inactive); in test [19] it was 2.56 µM (inactive); in [20], 3.45 µM (inactive). The GI50 in [14] is 0.248 µM (active).

In the case of `CCOC(=O)CC1=CSC2=NCCN12`, the GI50 in test [1], in test [2], in [3], in test [5], in test [6] and in [7] was > 100 µM (inactive) in each case. Moreover, the GI50 in test [8], in [15], in test [16], in test [9], in [10] and in [11] was > 100 µM (inactive) in each case. Further, the GI50 in test [12], in test [13] and in test [14] was > 100 µM (inactive) each time.

For the compound `COc1cc(C(=O)C/C(CCC(=O)Nc2ccc(Cl)cc2Cl)=N/NC(=O)C(N)=O)ccc1O`, the GI50 in test [1], in test [2], in test [3], in [4], in test [5] and in [6] was > 100 µM (inactive) throughout. The GI50 in test [7], in test [8], in test [15], in test [16], in test [9] and in [10] was > 100 µM (inactive) each time. The GI50 in [11], in [12], in [13] and in test [14] was > 100 µM (inactive) throughout.

Consider `COc1cc2c(c(OC)c1OC)-c1ccc(SC)c(=O)cc1[C@@H](NCc1ccc(C#N)cc1)CC2`, for which the GI50 was 0.00348 µM (active) in test [1]; 0.00578 µM (active) in [2]; 0.00414 µM (active) in [3]; 0.00578 µM (active) in test [4]; 0.00391 µM (active) in [5]; 0.0035 µM (active) in [6]. Also, the GI50 in [7] was 0.00326 µM (active); in [8] it was 0.00278 µM (active); in test [15], 0.00564 µM (active); in [16], 0.00671 µM (active); in test [9], 0.00701 µM (active); in test [10], 0.00703 µM (active). The GI50 is 0.00528 µM (active) in test [11], 0.00589 µM (active) in test [12], 0.00726 µM (active) in [13] and 0.0041 µM (active) in test [14].

For the compound `COc1cc(CCc2cccnc2)cc(OC)c1OC`, the GI50 in test [1], in test [2], in test [3], in [4], in test [5] and in [6] was > 100 µM (inactive) in each case. Further, the GI50 in test [7] is > 100 µM (inactive); in test [8], 65.8 µM (inactive); in test [15], > 100 µM (inactive); in test [16] it was > 100 µM (inactive); in test [9], > 100 µM (inactive); in test [11], > 100 µM (inactive). In addition, the GI50 in test [12], in test [13] and in [14] was > 100 µM (inactive) in each case.

Take `CC(C)C(NC(=O)C(CCCCN)NC(=O)C(Cc1c[nH]c2ccccc12)NC(=O)C(Cc1ccc(O)cc1)NC(=O)C(CS)NC(=O)C(N)Cc1ccc2ccccc2c1)C(=O)NC(CS)C(=O)NC(C(N)=O)C(C)O` (stereo not given) (H-[2Nal]CYWKVCT-NH2; configuration not given here): the GI50 in test [1] was > 100 µM (inactive); in test [2], > 100 µM (inactive); in [3], > 12.5 µM (inactive); in [4], > 12.5 µM (inactive); in [5], > 12.5 µM (inactive); in [6], > 12.5 µM (inactive). Also, the GI50 in test [17], in test [7], in test [8], in test [15], in test [16] and in [9] was > 12.5 µM (inactive) each time. Further, the GI50 in test [10], in [11], in [18], in [12], in [19] and in test [13] was > 12.5 µM (inactive) throughout. Also, the GI50 in test [14] is > 12.5 µM (inactive).
